Values joined by “and” are separate entries in the source; they are usually repeats but may differ in a detail not shown here. Equal values may be shown once.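 All cell lines were grown in 96-well plates and treated with compound for 48 hours. At the GI50, growth is halved. Definition used: TGI = concentration required for complete inhibition of growth.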
The compounds below were run on MDA-MB-468 breast (assay: NCI anticancer screen, dose series, 48 h).
CCN(Cc1cccc(Cl)c1)c1ccc(CO)c(Cl)c1 gave a GI50 of 25 nM and a TGI of 81.7 nM.
COc1cc(C2c3cc4c(cc3C(OC(=O)C[n+]3ccccc3)C3COC(=O)C23)OCO4)cc(OC)c1OC (configuration not stated) showed a GI50 of 24.2 nM and a TGI of 77.7 nM.
Compound CSc1nc2c(c(=O)n1C)CN(C1CCCCC1)C(=O)C(c1ccccc1)N2 (configuration not stated) has a GI50 of 52200 nM and a TGI of over 100000 nM.
Work on Cc1cc(C)c(-c2c(N)cc(Br)cc2Br)c(N)c1 yielded a GI50 of 2240 nM and a TGI of 5760 nM.
In the case of CC[C@@H](C)/C=C(C)/C=C/C(=O)c1c(O)c(-c2ccc(O)cc2)cn(O)c1=O, the GI50 is reported as 167 nM and the TGI is reported as 624 nM.
For CN1C(=O)[C@]23SSC1(C)C(=O)N2[C@H]1Nc2ccccc2C1([C@@]12c4ccccc4N[C@@H]1N1C(=O)C4(C)SS[C@]1(C(=O)N4C)[C@H]2O)[C@@H]3O (some centres not stated), the GI50 was 35.1 nM and 115 nM and the TGI was 103 nM and 322 nM.
CC(=O)[C@H]1CCC/C=C/[C@@H]2C[C@H](O)C[C@H]2[C@H](O)/C=C/C(=O)O1 gave a GI50 of 159 nM and a TGI of 687 nM.
With CC(=O)c1cc(C(=O)c2ccc3c(c2)Sc2ccccc2N3)n2ccccc12 the GI50 was 2.56 nM and 3.32 nM.
For CCOc1ccn(-c2ccc(F)cc2)c(=O)c1C(=O)Nc1ccc(Oc2ccnc(N)c2Cl)c(F)c1, the GI50 was 5700 nM and the TGI was 34800 nM.
Work on Cc1cc(Nc2nc(N[C@@H](C)c3ncc(F)cn3)ncc2Cl)n[nH]1 yielded a GI50 of 18200 nM and a TGI of 52100 nM.
Work on CC(C)COc1nc2c(c(=O)n(C)c(=O)n2C)n1C yielded a GI50 of over 100000 nM and a TGI of over 100000 nM.
With CCCCCCCC/C=C/CCCCCCCC1=NC(C)(C)CN1CCO the GI50 was 1670 nM and the TGI was 3210 nM.
Compound COc1ccc([C@@]23Oc4cc(OC)cc(OC)c4[C@]2(O)[C@H](O)[C@H](C(N)=O)[C@H]3c2ccccc2)cc1 has a GI50 of under 10 nM and a TGI of 45.8 nM.
CCNC(=O)Oc1ccc(/C(=C(/C)Cc2ccc(OC)cc2)c2ccc(OCCN(CC)CC)cc2)cc1 gave a GI50 of 1630 nM and a TGI of 3460 nM.
Work on Cc1cc2c(-c3nc4ccccn4c3N)c(O)c(O)cc2c(O)c1-c1c(C)cc2c(-c3nc4ccccn4c3N)c(O)c(O)cc2c1O yielded a GI50 of 538 nM and a TGI of 3520 nM.
CN1CCN(C(=O)COc2ccc(/C=C3\CC4C5CC=C6CC(Cl)CCC6(C)C5CCC4(C)C3=O)cc2)CC1 (configuration not stated) gave a GI50 of 6030 nM and a TGI of over 100000 nM.
CC(=O)C1=C(O)C=C2Oc3c(C(=O)/C=C/c4cc(Cl)cc(Cl)c4)c(O)c(C)c(O)c3[C@]2(C)C1=O showed a GI50 of 529 nM and a TGI of 1340 nM.
C#CCN(c1ccc(C(=O)N[C@@H](CCC(=O)N[C@H](CCC(=O)O)C(=O)O)C(=O)O)cc1)C1CCc2cc3nc(CO)[nH]c(=O)c3cc21 (some centres not stated) was tested, and the GI50 was over 23100 nM and the TGI was over 100000 nM.
In the case of O=S(=O)(Nc1ccc(I)c(Cl)c1)c1ccc(-c2cnc(C3CC3)o2)cc1, the GI50 is reported as 314 nM and the TGI is reported as 2650 nM.
Cn1cc(-c2cnn3c(N)c(Br)c(C4CCCNC4)nc23)cn1 (configuration not stated) gave a GI50 of 11100 nM and a TGI of 44100 nM.
Compound CN1CCN(Cc2ccc(NC(=O)c3cncc(C#Cc4cnc(N)c5cccnc45)c3)cc2C(F)(F)F)CC1 has a GI50 of 698 nM and a TGI of over 50000 nM.
In the case of COc1cc(C(=O)c2cnc(-c3cccc4[nH]ccc34)[nH]2)cc(OC)c1OC, the GI50 is reported as 64.6 nM and < 10 nM and the TGI is reported as 88700 nM.
Work on Clc1ccccc1-c1nnc2c(Cc3ccccc3)nc3ccccc3n12 yielded a GI50 of 5240 nM and a TGI of over 100000 nM.
Compound O=[N+]([O-])c1cc([N+](=O)[O-])c(Nn2c3ccccc3c3ccccc32)c([N+](=O)[O-])c1 has a GI50 of 274 nM and a TGI of 782 nM.
With N#Cc1cnc(Nc2cc(NC[C@H]3CNCCO3)c(C(F)(F)F)cn2)cn1 the GI50 was 16400 nM and the TGI was 37400 nM.
c1ccc(CNCCN(CCNCc2ccccn2)Cc2ccc3ccccc3c2)nc1 was tested, and the GI50 was 2180 nM and the TGI was 4920 nM.
Work on Cc1cc(-c2cc(O)ccc2Cl)cc2nnc(Nc3ccc(OCCN4CCCC4)cc3)nc12 yielded a GI50 of 583 nM and a TGI of 2040 nM.
With Cc1cc(Nc2cc(N3CCN(C)CC3)nc(/C=C/c3ccccc3)n2)n[nH]1 the GI50 was 590 nM and the TGI was 2440 nM.
In the case of CO[C@H]1CC(O[C@@H]2/C(C)=C/C[C@@H]3C[C@@H](C[C@]4(CC[C@H](C)[C@@H](C5CCCCC5)O4)O3)OC(=O)[C@@H]3C=C(C)/C(=N/O)[C@H]4OC/C(=C\C=C\[C@@H]2C)[C@]43O)O[C@@H](C)C1O (some centres not stated), the GI50 is reported as 793 nM and the TGI is reported as 1760 nM.

Source: PubChem BioAssay (NCI)
